Assay results from patent US10758513B2, “Modulators of mitochondrial protein import” (THE REGENTS OF THE UNIVERSITY OF CALIFORNIA, priority 2011, dated 2020).
Values after ≈ are worked out from the molar mass of the structure shown.

Key:
[1] = test system: tim9-3 mutant; assay: Yeast growth inhibition (MIC50), tim9-3 mutant; assay type: cell-based; details: Saccharomyces cerevisiae; disrupted for prd5 and snq2
[2] = test system: tim10-1 mutant overexpressing import components; assay: Yeast growth inhibition, tim10-1 mutant overexpressing import components; assay type: cell-based
Excerpt: In general, a standard set of genetic and molecular techniques were used to generate the strains in this study (31, 32). Screening strains were generated based on previously characterized temperature sensitive mutants (see supplementary table 1). The snq1 and pdr5 deletions were introduced in each strain by strain mating with MDY326 or PCR-mediated deletion (33, 34). Overexpression strains were generated by transforming 2p yeast shuttle vectors carrying the gene of interest with the native promoter into the tim10-1 strain using a standard LiCl protocol (35). Transformed yeast was maintained on selective media appropriate for the plasmid's auxotrophic marker. Strains lacking mitochondrial DNA (rho null) were generated by two rounds of selection of the parent on YPD plates supplemented with ethidium bromide (40 μg/ml) followed by two rounds of single colony selection on YPD plates.
A primary screen was performed using freshly streaked tim10-1 diluted in YPD to an OD600 of approximately 0.0002 and kept on ice throughout the screening run. […] Each plate was shaken in a Beckman orbital shaker to resuspend settled cells, and the OD600 in each well was read by a Wallac Victor plate reader (Perkin Elmer). The top 600 growth inhibitory compounds were determined and assembled into two plates. […]

[3] = test system: tim10-1 tim9S mitochondria; assay: In vitro import of radiolabeled precursors into tim10-1 tim9S mitochondria; assay type: biochemical, yeast
Method: Prior to import into purified mitochondria, ^35S-methionine and cysteine labeled proteins were generated with TNT Quick Coupled Transcription/Translation kits (Promega) and plasmids carrying the gene of interest. Transcription of genes was driven by either a T7 or SP6 promoter. Import reactions were conducted according to established methods. After frozen mitochondria aliquots were thawed and added to the import buffer at a final concentration of 100 μg/mL, drug or DMSO vehicle was added as indicated. A final vehicle concentration of 1% was used in all experiments. Following 15 minute incubation at 25° C., import reactions were initiated by the addition of […] of translation mix. Aliquots were removed at intervals during the reaction timecourse and import was terminated with either cold buffer, 25 μg/mL trypsin, or a combination of both. If trypsin was added to digest unimported precursor protein, soybean trypsin inhibitor (STI) was subsequently added in excess after 15 minute incubation on ice. After a final recovery of by centrifugation (8,000×g, 5 minutes), mitochondria were disrupted in Laemmli sample buffer. Imports of membrane proteins (AAC, PiC, Tom40, Tim22, and Tim23) included a carbonate extraction step to remove proteins that had not inserted into the membrane (Koehler C M, et al. (1998), Science 279:369-373). Samples from import reaction time points were resolved by SDS polyacrylamide gel electrophoresis (SDSPAGE) and gels were dried prior to exposing to film.

[4] = test system: tim10-1 tim9S mitochondria; assay: Respiration (oxygen electrode) of tim10-1 tim9S mitochondria; assay type: biochemical, yeast; details: NADH; 25 μM MitoBloCK-1; CCCP as control
Method: Oxygen consumption of […] mitochondria was measured using methods previously described (8). Briefly, purified […] mitochondria aliquots (25 mg/mL) were thawed on ice and tested within 2 hours. A Clark-type oxygen electrode in a stirred, thermostatically controlled 1.5-ml chamber at 25° C. (Oxytherm; Hansatech) facilitated measurement. […] Consumption rate was monitored for approximately 2 min.

NC(=S)N/N=C/c1c(O)c(Br)cc2oc3c(c12)CCCC3 [MitoBloCK-1]
MIC50 [1]: 11 µM (≈ 4.05 µg/mL) | growth inhibition of tim10-1 mutant with overexpression of import components [2]: did not alter the ability of MitoBloCK-1 to inhibit growth | protease sensitivity of AAC precursor ([3]; presence of a membrane potential): sensitive to protease | import of Hsp60 (TIM23 pathway) ([3]; tim10-1 tim9S mitochondria): did not impair import | import of Mia40 (Mia40/Erv1 pathway) ([3]; tim10-1 tim9S mitochondria): not inhibited | import of Su9-DHFR (TIM23 pathway) ([3]; tim10-1 tim9S mitochondria): did not impair import | import of Tafazzin ([3]; tim10-1 tim9S mitochondria): import was inhibited | import of Tim9 (Mia40/Erv1 pathway) ([3]; tim10-1 tim9S mitochondria): not inhibited | import of Tim10 (Mia40/Erv1 pathway) ([3]; tim10-1 tim9S mitochondria): not inhibited | import of Tim22 ([3]; tim10-1 tim9S mitochondria): impaired | import of Tim23 ([3]; tim10-1 tim9S mitochondria): but not Tim23 was impaired | import of Tom40 ([3]; tim10-1 tim9S mitochondria): inhibited the import | import of cyt b2-DHFR (TIM23 pathway) ([3]; tim10-1 tim9S mitochondria): did not impair import | import of phosphate carrier (PiC) ([3]; tim10-1 tim9S mitochondria): inhibited the import | import of AAC ([3]; tim10-1 tim9S mitochondria, 1 μM MitoBloCK-1 or greater): markedly decreased | rate of respiration [4]: did not significantly alter the rate of respiration
